The numbers were not newly measured in US20230000835A1, “LYSINE-SPECIFIC HISTONE DEMETHYLASE INHIBITORS FOR THE TREATMENT OF MYELOPROLIFERATIVE NEOPLASMS” (Imago Biosciences, Inc., priority 2019, published 2023), which cites them from elsewhere.

For this data set, the system named is primary myelofibrosis patients. The conditions noted are these: 50 to 100 mg/day in combination with prednisone; cited from earlier work.

Each structure is given as a SMILES string.

For `O=C1CCC(N2C(=O)c3ccccc3C2=O)C(=O)N1` (centres unmarked) [Thalidomide], the “primary myelofibrosis patients with improved anemia and thrombocytopenia” value was “approximately 60%”; the “primary myelofibrosis patients with reduced spleen size” value is recorded as “approximately 20%”.
